Data set [1] in a line: Ionic liquid concentration / solubility in NaCl solution or brine. It is filed as physicochemical. The procedure: Additional experiments were performed to measure IL concentration in the brine with different salinities. In these experiments, the brine (MX, FIG. 1) salinity is 4% or higher depending on the initial mixing ratio of the saline water and IL.
The nature of data set [2]: Solubility of ionic liquid in water (LC-MS of [Tf2N]-). The note with it: for Solubility in H2O: Table 7 / Example 2; for Solubility in H2O (ppm): IL in water / residual in recovered water.
Experimental: Samples with different IL/water ratios are mixed in beaker with stirring speed of 300 rpm for 10 hours, and then a 3-hour sitting period was allowed to guarantee thermodynamic equilibrium of dissolution. Because the ILs tested have higher density than water, the solution in the top layer was extracted as the sample. […] The intensity of a certain ion acquired by the mass spectrometer proportionally reflected the concentration of this kind of ion in the water solution.
A short description of a further data set: Viscosity (rheometer). It is filed as physicochemical. Particulars: for Viscosity: TA Instrument Discovery HR-2, temperature not stated; for Viscosity in Pa · s: 293 K. On the procedure: Table 3. The viscosity was measured with Discovery Hybrid Rheometer 2.
A short description of data set [3]: Directional solvent extraction (DSE) desalination cycle, moderate / seawater-salinity NaCl feed. The note with it: seawater salinity feedwater (3.5 wt %, 14,000 ppm Na+).
Experimental: (§1) The mixture was maintained at that temperature for ˜10 minutes for phase separation, expecting the brine to separate from the IL. The IL phase, which contained pure water dissolved within it, was collected, and cooled down to room temperature, precipitating out the fresh water due to lowered solubility in the IL. The separation of these two phases was facilitated by a centrifuge at 3000 rpm. The amount of recovered water was used to calculate the yield, and the water was also characterized for contents of NaCl ions and residual ILs to verify directional solubilities. The NaCl ion concentration was measured using Perkin Elmer Optima 8000 ICP-OES and the IL content is measured using Waters TQD triple mass spectrometer coupled to an Acquity ultrahigh pressure liquid chromatography system.
All Na^+ concentration measurements were performed using Perkin Elmer Optima 8000 ICP-OES. Since all water samples in the experiment were deionized water, it was rational to assume that the molar concentration of Na^+ was equal to that of NaCl. […] A set of calibration curves of conductivity versus Na^+ ion concentration was created prior to the measurements. […] Samples with different IL/water ratios are mixed in beaker with stirring speed of 300 rpm for 10 hours, and then a 3-hour sitting period was allowed to guarantee thermodynamic equilibrium of dissolution. Because the ILs tested have higher density than water, the solution in the top layer was extracted as the sample. […] The intensity of a certain ion acquired by the mass spectrometer proportionally reflected the concentration of this kind of ion in the water solution.
The DS performance in a DSE desalination cycle was evaluated for the assembled ILs, which involved first exposure to water bearing 3.7-5.0 wt % of NaCl (11,000-15,000 ppm of Na^+) followed by thorough mixing at elevated temperatures of 45, 60 or 75° C. […] The amount of residual NaCl and IL in the recovered aqueous phase was then measured using atomic emission spectroscopy and liquid chromatography-mass spectrometry.
The nature of data set [4]: DSE desalination cycle, high-salinity / saturated / hypersaline NaCl feed.
Experimental: as §1

The values that follow come from patent publication US20240391800A1, “HYPERSALINE DESALINATION USING IONIC LIQUIDS AND LOW-TEMPERATURE HEAT” (UNIVERSITY OF NOTRE DAME DU LAC, priority 2021, published 2024).

The structures appear in SMILES notation. Where “and” joins values, the source holds several entries; their conditions need not be identical. Equal values may be shown once.

Consider `CC[n+]1ccn(C)n1` [[1,2,3-emtriz][Tf2N], 1-ethyl-3-methyl-1,2,3-triazolium bistriflimide], for which, in data set [1], the “solubility in 4% NaCl solution” value is listed as “about 41 ppm”. Besides, the “Solubility in H2O” value in data set [2] is listed as ~390 ppm. Besides, the Viscosity in “Viscosity (rheometer)” worked out at 0.035 Pa · s. For the same molecule, the “Ion rejection, seawater concentration” value in data set [3] is listed as 92.5%.
For `CC(C)C[C@H](NS(=O)(=O)C(F)(F)F)C(=O)O.CCCCCCCC[P+](CCCC)(CCCC)CCCC` [[P4448] I-Leu, Tributyloctylphosphonium trifluoromethanesulfonylleucine], the “Viscosity in Pa · s” value in “Viscosity (rheometer)” worked out at 1.017 ± 0.078 Pa · s.
With `CCCCCCCC[P+](CCCC)(CCCC)CCCC` [[P4448][Bzlm]] [Tributyloctylphosphonium benzo[d]imidazol-1-ide], the “Viscosity in Pa · s” value in the data set “Viscosity (rheometer)” is on record as 0.185 ± 0.092 Pa · s.
Same read-out and setting: for `CCCCCCCC[P+](CCCC)(CCCC)CCCC` [[P4448][Tf2N]] [Tributyloctylphosphonium bis(trifluoromethanesulfonyl)imide] the value was 0.433 Pa · s and 0.433 ± 0.099 Pa · s; for `CCCCCCCCCCCCCC[P+](CCCCCC)(CCCCCC)CCCCCC` [[P66614][Tf2N], Trihexyltetradecylphosphonium bis(trifluoromethanesulfonyl)imide], 0.081 ± 0.059 Pa · s.
As for `CCCCn1cc[n+](C)c1` [[bmim][Tf2N], 1-Butyl-3-methylimidazolium bis(trifluoromethylsulfonyl)imide], the “Solubility in H2O (ppm)” value in data set [2] is recorded as <90 ppm. In the data set “Viscosity (rheometer)”, the “Viscosity in Pa · s” value was 0.056 ± 0.010 Pa · s.
For the molecule `CCn1cc[n+](C)c1` [[emim][Tf2N], 1-Ethyl-3-methylimidazolium bis(trifluoromethylsulfonyl)imide], the “IL concentration in the brine (MX)” value in data set [1] (brine with 4% salinity) amounted to 4 ppm. In data set [1] (saturated NaCl solution), the “IL solubility in saturated NaCl solution” value is given as “lower than 4 ppm”. Besides, the “Solubility in H2O (ppm)” value in data set [2] is 130-150 ppm. In the data set “Viscosity (rheometer)”, the “Viscosity in Pa · s” value came to 0.033 ± 0.014 Pa · s.
For the molecule `COC[n+]1ccn(C)c1` [[mommim][Tf2N], 1-(methoxymethyl)-3-methyl-1H-imidazol-3-ium bis(trifluoromethylsulfonyl)imide], the “solubility in 4% NaCl solution” value in data set [1] was “about 26 ppm”. Also, in data set [4] (NaCl 19.6 wt % hypersaline feed), the “highest salt rejection rate obtained” value is reported as 95.8%. Also, the “Ion rejection, hypersaline” value in data set [4] (NaCl 19.6 wt %, Na+ 77,300 ppm feed, average of samples) was 89.5%. In addition, the “Solubility in H2O” value in data set [2] is given as ~270 ppm. In “Viscosity (rheometer)”, this molecule returned a Viscosity of 0.056 Pa · s. Besides, the “Ion rejection, seawater concentration” value in data set [3] is 95.2%.
